# Test results reported in the supplement of paper PMC11061612.
# Key:
# Test in all cases: Bliss excess, mean over the matrix (fraction); higher = more synergy
# [1] = test system: A4-Fuk (B-Lymphoblastic Leukemia)
# Method in brief: (§1)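 Cell lines in DMEM/F12 or RPMI with 10% FBS were plated in 1536-well plates, held 24 hours at 37°C, 5% CO2, then given two-drug dose matrices for 72 hours (DMSO typically 0.2%). Viability was read by CellTiter-Glo 2.0 luminescence and scaled as inhibition from 0 (vehicle wells) to 1 (blank wells). Combination Emax is the second-highest inhibition in the matrix; Bliss excess is observed combination effect minus expected EA + EB − EA·EB, EA and EB being single-agent effects.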
# [2] = test system: COLO-668 (Small Cell Lung Carcinoma)
# Method in brief: as §1
# [3] = test system: COLO-679 (Melanoma)
# Method in brief: as §1
# [4] = test system: KGN (Other Solid Carcinomas)
# Method in brief: as §1
# [5] = test system: KMRC-1 (Kidney Carcinoma)
# Method in brief: as §1
# [6] = test system: ML-2 (Acute Myeloid Leukemia)
# Method in brief: as §1
# [7] = test system: MOLT-4 (T-Lymphoblastic Leukemia)
# Method in brief: as §1
# [8] = test system: MV-4-11 (Acute Myeloid Leukemia)
# Method in brief: as §1
# [9] = test system: Mo-T (Other Blood Carcinomas)
# Method in brief: as §1
# [10] = test system: NCI-H1355 (Lung Adenocarcinoma)
# Method in brief: as §1
# [11] = test system: NCI-H1993 (Lung Adenocarcinoma)
# Method in brief: as §1
# [12] = test system: SK-LU-1 (Lung Adenocarcinoma)
# Method in brief: as §1
# [13] = test system: SKN (Other Solid Carcinomas)
# Method in brief: as §1
# [14] = test system: SNU-387 (Hepatocellular Carcinoma)
# Method in brief: as §1
Compound,Bliss excess [1],Bliss excess [2],Bliss excess [3],Bliss excess [4],Bliss excess [5],Bliss excess [6],Bliss excess [7],Bliss excess [8],Bliss excess [9],Bliss excess [10],Bliss excess [11],Bliss excess [12],Bliss excess [13],Bliss excess [14]
"CS(=O)(=O)CCNCc1ccc(-c2ccc3ncnc(Nc4ccc(OCc5cccc(F)c5)c(Cl)c4)c3c2)o1 [Lapatinib] + Cn1cnc2c(F)c(Nc3ccc(Br)cc3Cl)c(C(=O)NOCCO)cc21 [Selumetinib] (first compound max 10 µM, 7x7, partner max 10 µM)",-0.045,-0.0388,-0.116,0.0232,-0.0772,-0.151,0.0852,0.0464,-0.0542,-0.0323,0.0118,-0.0145,-0.0349,0.0212
"O=C(c1cc(Cc2n[nH]c(=O)c3ccccc23)ccc1F)N1CCN(C(=O)C2CC2)CC1 [Olaparib] + CC1(C)CCC(CN2CCN(c3ccc(C(=O)NS(=O)(=O)c4ccc(NCC5CCOCC5)c([N+](=O)[O-])c4)c(Oc4cnc5[nH]ccc5c4)c3)CC2)=C(c2ccc(Cl)cc2)C1 [Venetoclax] (first compound max 10 µM, 7x7, partner max 1 µM)",-0.0118,-0.0261,-0.0643,-0.0145,-0.0522,0.115,0.124,0.0475,-0.0336,-0.0524,-0.0397,-0.0404,-0.0516,-0.0285
"O=C(c1cc(Cc2n[nH]c(=O)c3ccccc23)ccc1F)N1CCN(C(=O)C2CC2)CC1 [Olaparib] + CN(CC[C@H](CSC1=CC=CC=C1)NC2=C(C=C(C=C2)S(=O)(=O)NC(=O)C3=CC=C(C=C3)N4CCC(CC4)[C@H](C5=CC=CC=C5C6=CC=C(C=C6)Cl)O)S(=O)(=O)C(F)(F)F)CCO [AZD4320] (first compound max 10 µM, 7x7, partner max 1 µM)",-0.0428,0.0025,-0.0667,-0.0153,-0.0501,0.0877,0.0581,-0.0086,-0.0065,-0.0336,-0.0405,-0.0445,-0.0712,-0.0863
"O=C(c1cc(Cc2n[nH]c(=O)c3ccccc23)ccc1F)N1CCN(C(=O)C2CC2)CC1 [Olaparib] + COc1nnc2ccc(N3CCC(c4ccc(OCCN5CCN(C)C(=O)[C@H]5C)cc4)CC3)nn12 [AZD5153] (first compound max 10 µM, 7x7, partner max 1 µM)",-0.0412,-0.0335,-0.0654,0.018,-0.0556,-0.0153,0.023,0.008,-0.0413,-0.11,-0.0529,-0.0623,-0.0557,-0.0768
"O=C(c1cc(Cc2n[nH]c(=O)c3ccccc23)ccc1F)N1CCN(C(=O)C2CC2)CC1 [Olaparib] + Cc1c2c(nn1C)CSCc1cc(n(C)n1)CSc1cc(c3ccccc3c1)OCCCc1c(C(=O)O)n(C)c3c-2c(Cl)ccc13 [AZD5991] (first compound max 10 µM, 7x7, partner max 1 µM)",-0.0387,-0.0495,-0.0555,-0.0651,-0.0784,0.0318,0.0336,0.0735,-0.0492,-0.0595,-0.0275,-0.0436,-0.0407,-0.0935
"Cc1nc(-c2cn3c(n2)-c2ccc(-c4cnn(C(C)(C)C(N)=O)c4)cc2OCC3)n(C(C)C)n1 [Taselisib] + O=C(Nc1ccc2[nH]nc(-c3ccncc3)c2c1)[C@@H]1CCN(CC(=O)N2CCN(c3ccc(-c4ncccn4)cc3)CC2)C1 [SCH772984] (first compound max 10 µM, 7x7, partner max 5 µM)",0.0883,0.0737,-0.0148,0.0378,-0.0377,0.101,0.13,0.177,0.0526,-0.0124,0.111,0.0898,-0.0535,0.122
"CC1(C)CCC(CN2CCN(c3ccc(C(=O)NS(=O)(=O)c4ccc(NCC5CCOCC5)c([N+](=O)[O-])c4)c(Oc4cnc5[nH]ccc5c4)c3)CC2)=C(c2ccc(Cl)cc2)C1 [Venetoclax] + CS(=O)(=O)CCNCc1ccc(-c2ccc3ncnc(Nc4ccc(OCc5cccc(F)c5)c(Cl)c4)c3c2)o1 [Lapatinib] (first compound max 1 µM, 7x7, partner max 10 µM)",-0.0406,0.0091,-0.0634,-0.0609,-0.0584,0.146,0.0967,0.0293,-0.0092,-0.0548,-0.0311,-0.0772,-0.0497,-0.0514
